In publication PMC11864979, “First-in-class ultralong-target-residence-time p38α inhibitors as a mitosis-targeted therapy for colorectal cancer” (Nature Cancer, 2025):
Several values for one entry are separate records, joined by “and”; a condition that tells them apart may be missing. Equal entries are not always repeated.

What was measured:
[1] = in vivo pharmacokinetic studies in mice (plasma, LC-MS); set-up: species or system mouse; details: for concentration at 0 min: 20 mg kg^−1, 0 min of treatment; for concentration at 90 min: 20 mg kg^−1, 90 min of treatment; for AUC / half-life / C^max / t^max: oral administration in mice, 20 mg kg^−1
Method: No mice were excluded during treatment studies. […] GFP imaging of tumors was performed using a Hamamatsu imaging system. For quantification of compounds in the murine plasma, 20 μl of tail-vein blood was diluted with 80 μl of heparin solution, before 200 μl of ice-cold acetonitrile with a defined internal standard was added. The samples were sonicated and centrifuged and the supernatant was subjected to liquid chromatography-mass spectrometry quantification. Full blood analyses were performed with the Sysmex KX-21N hematology analyzer.

PDO4 = assay: cell viability in patient-derived CRC organoids PDO4; type: cell-based, human; details: Fig. 3e, replicates
Method: (§1) For in vitro treatment studies, organoids were mechanically dissociated and digested using TrypLE supplemented with 100 µg ml^−1 DNaseI and 10.5 µM Y-27632 dihydrochloride (Invitrogen) at 37 °C. A total of 1,000–2,000 single cells were plated per well in white 96-well plates (Greiner) in culture medium containing 10% GFR Matrigel or Cultrex BME. The treatment with doxycycline (5 µg ml^−1), pharmacological inhibitors or corresponding volumes of DMSO was started 24 h after plating. Doxycycline was obtained from Sigma-Aldrich. […] Cell viability was measured by means of CellTiter-Glo 3D or CellTiter-Glo 2.0 reagent (Promega) according to the manufacturers’ instructions and the Infinite M Plex reader (Tecan, i-control version 3.9.1 software). Results were normalized to vehicle (DMSO) or to shNC. For cell-doubling assays, the cell number was quantified at the corresponding time points using Guava EasyCyte flow cytometer (Luminex, CytoSoft v5.2 software).

KAP^2D cells = assay: SA-β-Gal senescence staining and senescence markers in CRC cells and organoids; type: cell-based, mouse; details: 5 days
Method: SA-β-Gal staining was carried out on sections of snap-frozen tumor tissues. The samples were fixed with 0.5% glutaraldehyde solution (in PBS pH 7.4) for 15 min at room temperature and then washed once with PBS and twice with 1 mM MgCl2 in PBS pH 5.5 (5 min each, at room temperature). Subsequently, the samples were incubated with X-Gal solution (2.45 mM X-Gal, 5 mM K3Fe(CN)6, 5 mM K4Fe(CN)6 and 1 mM MgCl2 in PBS pH 5.5) at 37 °C overnight protected from light. Upon staining, the samples were washed three times with PBS (5 min each), fixed with 4% formalin in PBS for 30 min and again washed with PBS (5 min each, at room temperature).
Immunofluorescence staining on cells and organoids was performed on glass coverslips or tissue culture chambers (Sarstedt). Organoids were plated in medium containing 10% Matrigel or Cultrex BME. The cultures were fixed with 4% paraformaldehyde and stained with specific antibodies and DAPI (Vector Labs). All used antibodies and dilutions are listed in the Nature Portfolio Reporting Summary. For analyzing DNA synthesis, the Molecular Probes Click-iT EdU Alexa Fluor 555 kit was used 24 h after EdU incorporation with DAPI counterstaining. SA-β-Gal staining of cells was performed in cell culture dishes (cells) or tissue culture chambers (organoids) after fixation with 0.5% glutaraldehyde as described above. […]

KMP liver metastasis = assay: survival of mice with KMP liver metastasis; type: in vivo, mouse
Method: (§3) Subcutaneous injection, splenic seeding or cecum injection of organoids was performed in 8–10-week-old C57BL/6 N/Crl, Rag2^−/− (B6.Cg-Rag2^tm1.1Cgn/J), or CB17 Scid beige (CB17.Cg-Prkdc^scidLyst^bg-J/Crl) mice, obtained from Charles River. The organoids were dissociated into single cells, washed with PBS and injected in a 1:1 mixture of PBS and Matrigel. For murine organoids, 1 × 10^5 cells were injected into the left and right flanks or the spleen capsule and 2 × 10^6 cells were injected into the cecum wall. For human organoids, 4 × 10^5 cells were injected into the flanks of CB17 Scid beige mice. For splenic seeding and cecum injection, mice were anaesthetized using ketamine (100 mg kg^−1, intraperitoneally) and xylazin (10 mg/kg, intraperitoneally) in NaCl and a small laparotomy below the thorax was performed.

KMP primary CRCs = assay: survival of mice with KMP primary CRCs (cecum injection); type: in vivo, mouse
Method: as §3

[2] = histological evaluation of small intestine, colon and liver of treated mice; type: in vivo, mouse
Method: Histopathological evaluation of colorectal tumors and healthy tissues was performed by experienced pathologists (S.S. for murine or human tumors and tissues; G.O. for human tumors). Hematoxylin and eosin (H&E) staining was performed on paraffin-embedded sections using 0.5% eosin and 0.5% hematoxylin.

[3] = cell viability in healthy human colon organoids SCC311; type: cell-based; details: female, human, ED Fig. 10f, replicates
Method: (§2) Primary tumor material was chopped, washed in ice-cold medium and transferred into basic medium (Supplementary Table 17), supplemented with 2.5 mg ml^−1 collagenase II (Thermo Fisher Scientific), 2.5 mg ml^−1 collagenase XI (Sigma-Aldrich), 1 mg ml^−1 Dispase II (Sigma-Aldrich), 100 µg ml^−1 DNase I and 10.5 µM Y-27632 dihydrochloride (Invitrogen). Tumor digestion was performed at 37 °C and stopped by adding medium containing 10% FBS. The mixture was centrifuged for 5 min at 300g. Red blood cells were removed with ACK lysing buffer (Thermo Fisher Scientific; 5 min at room temperature) and the pellet was resuspended in medium. Approximately 1,000 cells were resuspended and plated in 50 µl of Cultrex RGF BME, type 2 (R&D Systems). The ascites material was pelleted by centrifugation at 300g and washed three times with ice-cold PBS. Human CRC organoids were cultured in human CRC medium (Supplementary Table 17) at 37 °C and 7% CO2. Within the first week, the medium was supplemented with 10.5 µM Y-27632 dihydrochloride (Invitrogen). The human colon organoids (SCC311 and SCC321) were purchased from Sigma-Aldrich and cultured in human colon medium (Supplementary Table 17) at 37 °C and 7% CO2. They were derived from participants with the following sex and age: […].
as §1

[4] = system: SCC311 human colon organoids; assay: as above; type: cell-based; details: for Cell viability (%): ED Fig. 10f, replicates
Method: as §2, §1

[5] = 0 min of treatment, individual animals
[6] = 45 min of treatment, individual animals
[7] = 90 min of treatment, individual animals
[8] = 180 min of treatment, individual animals
[9] = 480 min of treatment, individual animals
[10] = 1440 min of treatment, individual animals
[11] = mouse, plasma, oral, individual animals

For `O=C(NCCN1CCOCC1)c1ccc2c(c1)C(=O)c1ccc(Nc3ccc(F)c(NC(=O)c4ccccc4)c3)cc1CC2` [Compound 1639], the Plasma concentration [1, 5] was 0.00 µM, the Plasma concentration [1, 6] was 7.88 µM and 3.04 µM and 8.11 µM and the Plasma concentration [1, 7] was 5.28 µM and 6.24 µM. For the same compound, the Plasma concentration [1, 8] was 4.65 µM and 2.91 µM and 1.27 µM, the Plasma concentration [1, 9] was 0.69 µM and 0.19 µM and 0.76 µM and the Plasma concentration [1, 10] was 0.00 µM. It also gave a concentration at 0 min [1, 11] of 0 nM, a concentration at 90 min [1, 11] of 8.68 µM and a concentration at 1440 min ([1]; mouse, plasma, oral, 20 mg kg^−1, 1440 min of treatment, individual animals) of 0 nM. For the same compound, the AUC ([1]; mouse, plasma) was 27.6 µM·h, the half-life ([1]; mouse, plasma) was 2 h and the “C^max” value [1] was 6.7 µM. The “t^max” value [1] was 90 min, the “Cell viability (%)” value (PDO4; 0,5 µM, 5 µM) was 53.06% and 53.55% and the “Cell viability (%)” value (PDO4; 0,25 µM, 25 µM) was 68.57% and 69.02%. For the same compound, the “Cell viability (%)” value (PDO4; 1 µM) was 67.76% and 68.24%, the viability at 5 µM (PDO4; Homo sapiens, 0,5 µM) was 50.2% and the viability at 25 µM (PDO4; Homo sapiens, 0,25 µM) was 67.4%. The viability at 1 µM (PDO4; Homo sapiens, 1 µM) was 66.9%.

For `CNC(=O)c1ccc2c(c1)C(=O)c1ccc(Nc3ccc(F)c(NC(=O)C4CC4)c3)cc1CC2` [Compound 2015], the “senescence (SA-β-Gal, p16^Ink4a, HMGA2) (in words)” value (KAP^2D cells) was “clear senescence phenotype”, the Plasma concentration [1, 5] was 0.00 µM and the Plasma concentration [1, 6] was 20.46 µM and 14.73 µM. For the same compound, the Plasma concentration [1, 7] was 17.75 µM and 16.83 µM, the Plasma concentration [1, 8] was 13.04 µM and 13.78 µM and the Plasma concentration [1, 9] was 2.27 µM and 3.36 µM. For the same compound, the Plasma concentration [1, 10] was 0.20 µM and 0.04 µM (2×), the concentration at 0 min [1, 11] was 0 nM and the concentration at 45 min ([1]; mouse, plasma, oral, 20 mg kg^−1, 45 min of treatment, individual animals) was 26.8 µM. It also gave a concentration at 90 min [1, 11] of 25.2 µM, a concentration at 180 min ([1]; mouse, plasma, oral, 20 mg kg^−1, 180 min of treatment, individual animals) of 17 µM and a concentration at 480 min ([1]; mouse, plasma, oral, 20 mg kg^−1, 480 min of treatment, individual animals) of 4.26 µM. For the same compound, the AUC ([1]; mouse, plasma) was 121 µM·h, the half-life ([1]; mouse, plasma) was 2.68 h and the “C^max” value [1] was 20.7 µM. The “t^max” value [1] was 45 min, the “Survival (d of treatment)” value (KMP liver metastasis; individual mice, KMP liver metastasis, treatment started 1 week after transplantation) was 42 days and 50 days and 29 days and 31 days and 35 days and 44 days and the “Kaplan–Meier event entry in 2015 (1 or 0)” value (KMP liver metastasis; individual mice, KMP liver metastasis, meaning of 1/0 not given) was 1 and 0. The “survival of mice with KMP liver metastasis (in words)” value (KMP liver metastasis; long-term treatment) was “significantly prolonged survival”, the “Survival (d of treatment)” value (KMP primary CRCs; individual mice, KMP primary CRC, treatment started 9 days after transplantation) was 24 days and 15 days and 11 days and 25 days and 21 days and 13 days and 18 days and the “Kaplan–Meier event entry in 2015 (1 or 0)” value (KMP primary CRCs; individual mice, KMP primary CRC, meaning of 1/0 not given) was 1 and 0. For the same compound, the “survival of mice with KMP primary CRC (in words)” value (KMP primary CRCs; start 9 days after organoid injection) was “significantly prolonged survival”, the “Cell viability (%)” value (PDO4; 0,5 µM, 5 µM) was 13.84% and 14.01% and the “Cell viability (%)” value (PDO4; 0,25 µM, 25 µM) was 62.38% and 62.93%. For the same compound, the “Cell viability (%)” value (PDO4; 1 µM) was 11.63% and 11.83%, the viability at 25 µM (PDO4; Homo sapiens, 0,25 µM) was 60% and the viability at 1 µM (PDO4; Homo sapiens, 1 µM) was 11.2%. For the same compound, the “intestinal epithelium (in words)” value ([2]; 4 days or 10 weeks daily treatment) was “did not influence the regeneration of intestinal epithelium”, the “liver damage (in words)” value ([2]; short-term and long-term treatment) was “no signs for liver damage” and the viability at 5 µM ([3]; healthy human colon organoids SCC311, 2015 0,5 µM) was 96%. The viability at 25 µM ([3]; healthy human colon organoids SCC311, 2015 0,25 µM) was 113%, the “Cell viability (%)” value ([4]; 2015 0,5 µM, 5 µM) was 94.54% and 77.32% and the “Cell viability (%)” value ([4]; 2015 0,25 µM, 25 µM) was 97.45% and 99.37%. For the same compound, the “Cell viability (%)” value ([4]; 2015 1 µM) was 74.60% and 77.39% and 95.83% and the “response of healthy human colon culture (in words)” value ([4]; SCC311, 4 d) was “only a very weak response”.
